{"source": "patent US10907168B2", "about": "“Jasmonic acid pathway activator” (MEDICAGO INC., priority 2015, dated 2021)", "key": {"C5-1 antibody": {"system": "C5-1 antibody", "test": "C5-1 antibody quantification by ELISA in agroinfiltrated leaves", "assay_type": "in vivo, Nicotiana benthamiana", "experimental": "Forty-two day-old N. benthamiana plants grown in greenhouse were used for the experiments. Each plant was sprayed evenly with 50 ml of 0.5 mM, 1 mM or 2 mM MeJA in water containing 0.1% (v/v) Triton X-100 (Sigma-Aldrich, Mississauga ON, Canada), or with 50 ml of 1 mM arachidonic acid (Girard et al., 2007) in the same solvent, and transferred for seven days in a Conviron growth chamber (Conviron, Winnipeg MB, Canada). Plants sprayed with 50 ml of 0.1% (v/v) Triton X-100 in water were used in parallel as negative controls to avoid confounding effects due to experimental conditions. Two or three 1-cm^2 leaf discs were harvested from the third main stem leaf (see Robert et al., 2013) after seven days, as source material for protein and RNA extraction. The leaf samples were frozen immediately in liquid nitrogen and stored at −80° C. until protein or RNA extraction. Three to five biological (plant) replicates were used for each treatment, to allow for statistical treatment of the data. Two gene vectors were used for the agroinfiltration assays: an engineered pcambia2300 vector encoding the light and heavy chains of C5-1 fused to an N-terminal signal peptide sequence for cellular secretion (see Goulet et al., 2012 for details on gene construct); and the original (“empty”) pcambia2300 binary vector (CAMBIA, Canberra, Australia) as a control for agroinfection. The two binary vectors were electroporated into A. tumefaciens strain LBA4404 and the cultures were maintained in Luria-Bertani (LB) medium supplemented with 50 μg/ml kanamycin and 50 μg/ml rifampicin. For infiltration, bacteria were grown to stable phase at 28° C. to an OD600 of 1.0 and collected by centrifugation at 2,000 g. The bacterial pellets were resuspended in 10 mM 2-[N-morpholino] ethanesulfonic acid] (MES) buffer, pH 5.8, containing 100 μM acetosyringone and 10 mM MgCl2. Leaf infiltration was performed using a needle-less syringe as described earlier (D'Aoust et al., 2009), after mixing the C5-1 antibody (or empty vector) agrobacterial suspension with an equal volume of bacterial suspension carrying a binary vector for the protein silencing suppressor p19 (Voinnet et al., 2003). Infiltrated tissue for molecular characterization was collected six days post-infection (i.e. seven days post-MeJA or arachidonate treatment), unless otherwise indicated. Three to five biological (plant) replicates were used for each treatment to allow for statistical analyses. ELISA plates for C5-1 antibody quantification (Becton Dickinson, Mississauga ON, Canada) were coated with 3.75 μg/ml goat anti-mouse heavy chain-specific IgG1 (Sigma-Aldrich) in 50 mM carbonate buffer (pH 9.0) at 4° C. for 16-18 h. The plates were washed three times in 10 mM phosphate-buffered saline containing 0.1% (v/v) Tween 20 (PBS-T), blocked through a 1-h incubation at 37° C. in 1% (w/v) casein in phosphate-buffered saline (PBS) (Pierce, Rockford Ill., USA), and washed three times in PBS-T. A standard curve was generated for each plate with 0, 4, 8, 16, 24, 32, 40 and 60 ng/ml of purified mouse IgG1 (Sigma-Aldrich). All dilutions (controls and samples) were performed in a control extract obtained from leaf tissue infiltrated with a mock inoculum so that any matrix effect was eliminated. The plates were incubated with protein samples for 1 h at 37° C., washed three times in PBS-T and then incubated with peroxidase-conjugated goat anti-mouse IgG (H+L) antibodies (0.02 μg/ml in blocking solution) (Jackson ImmunoResearch) for 1 h at 37° C. After additional washes with PBS-T, the plates were incubated with the 3,3′,5,5′-tetramethylbenzidine Sure Blue peroxidase substrate (KPL, Gaithersburg Md., USA). The reaction was stopped by the addition of 1 N HCl and the absorbance was read at 450 nm. Three independent (biological) replicates were used for each assay."}, "A. tumefaciens": {"system": "A. tumefaciens", "test": "Bacterial counts (CFU) in agroinfiltrated leaves", "assay_type": "in vivo, Agrobacterium tumefaciens", "conditions": "control and treated leaves; after four or six days post-infiltration", "description": "Two gene vectors were used for the agroinfiltration assays: an engineered pcambia2300 vector encoding the light and heavy chains of C5-1 fused to an N-terminal signal peptide sequence for cellular secretion (see Goulet et al., 2012 for details on gene construct); and the original (“empty”) pcambia2300 binary vector (CAMBIA, Canberra, Australia) as a control for agroinfection. The two binary vectors were electroporated into A. tumefaciens strain LBA4404 and the cultures were maintained in Luria-Bertani (LB) medium supplemented with 50 μg/ml kanamycin and 50 μg/ml rifampicin. For infiltration, bacteria were grown to stable phase at 28° C. to an OD600 of 1.0 and collected by centrifugation at 2,000 g. The bacterial pellets were resuspended in 10 mM 2-[N-morpholino] ethanesulfonic acid] (MES) buffer, pH 5.8, containing 100 μM acetosyringone and 10 mM MgCl2. Leaf infiltration was performed using a needle-less syringe as described earlier (D'Aoust et al., 2009), after mixing the C5-1 antibody (or empty vector) agrobacterial suspension with an equal volume of bacterial suspension carrying a binary vector for the protein silencing suppressor p19 (Voinnet et al., 2003). […] Bacterial loads in leaves were determined by the counting of CFU on LB agar plates coated with bacteria recovered at different moments from the third main stem leaf. […]"}, "[1]": {"conditions": "ELISA, 1 mM, 24 h before infiltration"}}}
{"compound": "CC/C=C\\C[C@H]1C(=O)CC[C@@H]1CC(=O)OC", "note": "[MeJA, methyl jasmonate]", "values": [{"measurement": "C5-1 yield change", "setting": "C5-1 antibody; 1 mM, 24 h before infiltration, antibody expressed under alfalfa plastocyanin promoter", "result": "more than twofold decrease"}, {"measurement": "C5-1 net yield as share of TSP", "setting": "C5-1 antibody; [1]", "result": "~7", "unit": "% TSP"}, {"measurement": "C5-1 net yield on a protein-relative basis", "setting": "C5-1 antibody; [1]", "result": "70 ng antibody/μg soluble proteins"}, {"measurement": "C5-1 protein-relative yield compared with control leaves", "setting": "C5-1 antibody; ELISA, 1 mM, 24 h before infiltration, P<0.05", "result": "about twice"}, {"measurement": "C5-1 yield on a weight basis", "setting": "C5-1 antibody; ELISA, 1 mM, 24 h before infiltration, maximum yield", "result": "~425", "unit": "μg/g leaf tissue"}, {"measurement": "C5-1 yield on a weight basis", "setting": "C5-1 antibody; ELISA, 2 mM, 24 h before infiltration", "result": "~325", "unit": "μg/g leaf tissue"}, {"measurement": "C5-1 yield change", "setting": "C5-1 antibody; ELISA, sprayed 24 h post-infiltration (0.5 or 1 mM)", "result": "No yield increase"}, {"measurement": "bacterial counts", "setting": "A. tumefaciens", "result": "less than a million"}]}
